{"source": "patent US12193465B2", "about": "“Materials and methods for extending shelf-life of foods” (JP Laboratories, Inc., priority 2021, dated 2025)", "key": {"[1]": {"assay": "Gas formation (gassed dome) of fresh juice", "details": "Example 65, Orange juice, 0.02 g, control 4 days", "excerpt": "(§1) Most of the foods changed color or texture."}, "[2]": {"system": "grains, legumes, potatoes, garlic", "assay": "Germination / sprouting of grains, legumes and tubers", "excerpt": "These bags were sealed with a heat sealer.\n(§2) The assembly was shaken periodically."}, "[3]": {"system": "parval, methi, coriander, radish, guar", "assay": "Shriveling / wilting / dehydration / becoming wet of produce", "excerpt": "as §1, §2"}}, "data": [{"smiles": "C=CCN=C=S", "note": "[AI, allyl isothiocyanate]", "values": [{"measurement": "Spoilage Time - Sample", "setting": "[1]", "result": 12, "unit": "days"}, {"measurement": "Spoilage Time - Sample", "setting": "[2]; Example 66, Germination, Mixed Legumes (T), 0.10 g, control 3 days", "result": 9, "unit": "days"}, {"measurement": "Spoilage Time - Sample", "setting": "[2]; Example 67, Germination, Mixed Legumes, Sachet, control 4 days", "result": 21, "unit": "days"}, {"measurement": "Spoilage Time - Sample", "setting": "[2]; Example 67, Germination, Mixed Legumes, Sachet, control 4 days, listed as allyl isothiocyanate", "result": "> 21", "unit": "days"}, {"measurement": "Spoilage Time - Sample", "setting": "[2]; Example 68, Germination, Mixed Legumes, Sachet, control 3 days", "result": 9, "unit": "days"}, {"measurement": "Spoilage Time - Sample", "setting": "[2]; Example 69, Germination, Soft White Wheat, Sachet, control 4 days", "result": 21, "unit": "days"}, {"measurement": "Spoilage Time - Sample", "setting": "[2]; Example 70, Germination, Soft White Wheat, 5 ml of 10% allyl isothiocyanate solution in water, control 4 days", "result": 21, "unit": "days"}, {"measurement": "Spoilage Time - Sample", "setting": "[2]; Example 71, Germination, Unshelled Rice, Sachet, control 3 days", "result": 15, "unit": "days"}, {"measurement": "Spoilage Time - Sample", "setting": "[2]; Example 79, Sprouting, Red Potatoes, 2 hrs P-E, control 9 days", "result": 16, "unit": "days"}, {"measurement": "Spoilage Time - Sample", "setting": "[2]; Example 80, Sprouting, Mix of red, purple and yellow potatoes, 4 hrs P-E, control 22 days", "result": 46, "unit": "days"}, {"measurement": "Spoilage Time - Sample", "setting": "[2]; Example 81, Sprouting, Fingerling Potatoes, 2 hrs P-E, control 37 days", "result": 59, "unit": "days"}, {"measurement": "Spoilage Time - Sample", "setting": "[2]; Example 82, Sprouting, Sprouted Garlic, 0.5 hr P-E, control 4 days", "result": "4+ days"}, {"measurement": "Spoilage Time - Sample", "setting": "[2]; Example 82, Sprouting, Sprouted Garlic, 0.5 hr P-E, control 4 days, listed as allyl isothiocyanate", "result": "no further growth of sprouts"}, {"measurement": "Germination and/or fungus", "setting": "[2]; flooded shelled peanuts, a drop in flooded water, control 5 days", "result": "> 8", "unit": "days"}, {"measurement": "Sprouting", "setting": "[2]; various types of potatoes, vapor or sachet, Examples 79-81", "result": "either prevented or significantly delayed"}, {"measurement": "Spoilage Time - Sample", "setting": "[3]; Example 75, Shriveling, Parval, 0.5 hr P-E, control 4 days", "result": "4+ days"}, {"measurement": "Spoilage Time - Sample", "setting": "[3]; Example 76, Shriveling, Parval, 1 hr P-E, control 4 days", "result": "4+ days"}, {"measurement": "Spoilage Time - Sample", "setting": "[3]; Example 83, Wet, Methi (Indian fenugreek), 1 hr P-E, control 9 days", "result": 30, "unit": "days"}, {"measurement": "Spoilage Time - Sample", "setting": "[3]; Example 83, Wet, Methi (Indian fenugreek), 1 hr P-E, control 9 days, listed as allyl isothiocyanate", "result": "remained fresh and green"}, {"measurement": "Crispness of treated guar", "setting": "[3]; guar exposed to vapor, lost green color slightly", "result": "remained crisp"}]}]}
